Target: bovine xanthine oxidase (BXO) (Bos taurus, UniProt P80457)
Experiment: XO inhibitory assay, double enzyme detection
Type: biochemical
Conditions: read-out: IC50 of moderately active compounds, moderate activities (Fig. 6)

Chain of bovine xanthine oxidase (BXO) (P80457 whole entry): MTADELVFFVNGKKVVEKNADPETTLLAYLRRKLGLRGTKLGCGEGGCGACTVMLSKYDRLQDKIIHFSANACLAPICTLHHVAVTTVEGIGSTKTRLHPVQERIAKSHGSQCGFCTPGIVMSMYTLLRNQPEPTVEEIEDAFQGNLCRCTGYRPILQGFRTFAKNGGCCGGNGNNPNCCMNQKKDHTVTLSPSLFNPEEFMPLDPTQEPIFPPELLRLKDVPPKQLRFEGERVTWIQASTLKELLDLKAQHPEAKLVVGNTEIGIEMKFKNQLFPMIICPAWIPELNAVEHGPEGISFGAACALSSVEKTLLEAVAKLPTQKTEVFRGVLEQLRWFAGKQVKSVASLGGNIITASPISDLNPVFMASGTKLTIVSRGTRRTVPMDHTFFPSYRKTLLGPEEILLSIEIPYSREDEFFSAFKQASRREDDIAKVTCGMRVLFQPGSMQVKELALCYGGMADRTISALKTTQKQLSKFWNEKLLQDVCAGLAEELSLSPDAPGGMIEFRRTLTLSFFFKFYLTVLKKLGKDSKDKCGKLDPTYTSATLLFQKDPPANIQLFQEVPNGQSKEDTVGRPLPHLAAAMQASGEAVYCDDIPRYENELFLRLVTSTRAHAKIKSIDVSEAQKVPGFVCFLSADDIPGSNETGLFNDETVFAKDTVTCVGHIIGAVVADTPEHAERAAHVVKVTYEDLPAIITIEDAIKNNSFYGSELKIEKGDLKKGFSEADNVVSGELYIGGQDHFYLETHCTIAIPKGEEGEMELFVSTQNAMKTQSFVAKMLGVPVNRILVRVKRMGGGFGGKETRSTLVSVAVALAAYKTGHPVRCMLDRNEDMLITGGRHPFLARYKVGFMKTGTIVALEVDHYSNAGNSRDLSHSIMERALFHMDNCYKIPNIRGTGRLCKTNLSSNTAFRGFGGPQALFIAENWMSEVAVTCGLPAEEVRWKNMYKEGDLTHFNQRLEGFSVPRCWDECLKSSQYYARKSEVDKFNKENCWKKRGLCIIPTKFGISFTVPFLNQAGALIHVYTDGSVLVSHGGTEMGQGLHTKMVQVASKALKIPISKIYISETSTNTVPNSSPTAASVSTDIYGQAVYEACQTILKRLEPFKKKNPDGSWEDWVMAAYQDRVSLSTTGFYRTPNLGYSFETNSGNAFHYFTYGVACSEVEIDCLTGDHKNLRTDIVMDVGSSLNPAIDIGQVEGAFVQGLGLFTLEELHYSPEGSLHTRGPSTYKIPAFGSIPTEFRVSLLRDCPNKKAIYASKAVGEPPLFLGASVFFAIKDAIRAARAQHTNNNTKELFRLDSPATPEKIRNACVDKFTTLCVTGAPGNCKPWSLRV

IC50: ≤ 263 µM
SMILES: O=[N+]([O-])c1ccc(C=Nn2c(Cn3nnc4ccccc43)n[nH]c2=S)cc1 [Compound 8, 3-((1H-Benzo[d][1,2,3]triazol-1-yl)methyl)-4-((4-nitrobenzylidene)amino)-1H-1,2,4-triazole-5(4H)-thione]

Source: paper PMC11004395 (Saudi Pharmaceutical Journal : SPJ, 2024)
